Results taken from patent US20190133968A1, “Applications of benzophenones in preparation of drug” (SHANXI MEDICAL UNIVERSITY, priority 2016, published 2019).

Test system: chronic nephritis rats
Experiment: chronic nephritis rat model (passive Heymann nephritis)
Format: in vivo, SD rats
Settings: gavage; for IL-1α / IL-1β / IL-6 / IL-10 / Scr: serum
Description: The solid dispersions are prepared through a solvent method, comprising steps of: respectively precisely weighing LM49, PVPK30 and tween80 with a weight ratio of 1:5:1, and A8, PVPK30 and tween80 with a weight ratio of 1:4:1; dissolving with appropriate absolute ethyl alcohol, continuously stirring, and uniformly mixing; placing on the water bath at 60° C., evaporating and removing the absolute ethyl alcohol, and obtaining a viscous material; placing in the freezer at −20° C., and freezing for 2 hours; taking out from the freezer, then placing in the vacuum drying oven, and drying for 24 hours; after becoming embrittlement, smashing and sieving with a sieve of 80 meshes, and then placing in the dryer for storage.
The passive Heymann nephritis is the classic model for researching the human chronic nephrosis. Thus, the present invention researches the effects of the two disclosed compounds on preventing the chronic nephritis with the model.
Ninety male SD rats having a weight of 180-220 g are selected, wherein: ten rats are selected as a blank group, and the remaining rats are used for preparing the rat Heymann nephritis models according to the method (disclosed in Journal of Proteomics, 2012, 75(3): pages 3866-3876). The successively established model rats are randomly divided into the model group, the positive control group (dexamethasone with a concentration of 0.1 mg/kg), the LM49 solid dispersion low-dose group (with the drug concentration of 3 mg/kg), the LM49 solid dispersion medium-dose group (with the drug concentration of 9 mg/kg), the LM49 solid dispersion high-dose group (with the drug concentration of 27 mg/kg), the A8 solid dispersion low-dose group (with the drug concentration of 3 mg/kg), the A8 solid dispersion medium-dose group (with the drug concentration of 9 mg/kg), and the A8 solid dispersion high-dose group (with the drug concentration of 27 mg/kg).
The rats of the blank group and the model group are administrated with the normal saline of same volume, and the rats of the other groups are respectively administrated with the drugs of the corresponding dose, by gavage, every day from model establishment for four weeks.
The blood of the rats of all groups is drawn at the second week and the fourth week from model establishment and 24-hour urine thereof is collected, for respectively measuring the contents of the urinary albumin, serum creatinine (Scr) in the serum, BUN, IL-1α, IL-1β, IL-6 and IL-10.
The data is represented in mean±(standard deviation) (x±s) and processed with the SPSS 19.0 statistical software. The one-way analysis of variance (ANOVA) is adopted for comparison among the groups, and then the LSD-Test is adopted for pairwise comparison. The differences of P<0.05 and P<0.01 are statistically significant.

[1] = high-dose 27 mg/kg, Fourth week
[2] = high-dose 27 mg/kg, Second week
[3] = medium-dose 9 mg/kg, Fourth week
[4] = medium-dose 9 mg/kg, Second week

Q: What does the source list for `O=C(c1cc(OC(=O)N2CCOCC2)c(OC(=O)N2CCOCC2)cc1Cl)c1cc(Cl)ccc1OC(=O)N1CCOCC1` [A8, 4,5,2′-tris(4-morpholinemethanoyl)-2,5′-dichlorobenzophenone]?
A: 24-hour urinary protein quantitation [1]: 8.26 ± 1.9^ΔΔ## mg/24 h; 24-hour urinary protein quantitation [2]: 14.77 ± 3.6^ΔΔ mg/24 h; IL-1α [1]: 7.33 ± 2.14^ΔΔ pg/ml; IL-1β [1]: 99.44 ± 39.74^ΔΔ# pg/ml; IL-6 [1]: 56.95 ± 20.44^ΔΔ pg/ml; IL-10 [1]: 40.21 ± 13.01 pg/mL; Scr [1]: 44.55 ± 10.7 µmol/L; IL-1α [2]: 10.69 ± 3.76 pg/mL; IL-1β [2]: 198.20 ± 90.01^Δ pg/ml; IL-6 [2]: 78.66 ± 35.92^ΔΔ pg/ml; IL-10 [2]: 60.25 ± 22.34 pg/mL; Scr [2]: 41.04 ± 10.1 µmol/L; 24-hour urinary protein quantitation (low-dose 3 mg/kg, Fourth week): 30.22 ± 6.8 mg/24 h; 24-hour urinary protein quantitation (low-dose 3 mg/kg, Second week): 32.98 ± 7.7 mg/24 h; IL-1α (low-dose 3 mg/kg, Fourth week): 12.65 ± 3.14 pg/mL; IL-1β (low-dose 3 mg/kg, Fourth week): 261.33 ± 76.55^ pg/ml; IL-6 (low-dose 3 mg/kg, Fourth week): 89.33 ± 29.89^Δ pg/ml; IL-10 (low-dose 3 mg/kg, Fourth week): 70.66 ± 32.28 pg/mL; Scr (low-dose 3 mg/kg, Fourth week): 47.36 ± 13.1 µmol/L; IL-1α (low-dose 3 mg/kg, Second week): 14.01 ± 3.99 pg/mL; IL-1β (low-dose 3 mg/kg, Second week): 310.21 ± 70.01 pg/mL; IL-6 (low-dose 3 mg/kg, Second week): 111.79 ± 36.28 pg/mL; IL-10 (low-dose 3 mg/kg, Second week): 89.33 ± 36.77 pg/mL; Scr (low-dose 3 mg/kg, Second week): 44.33 ± 11.1 µmol/L; 24-hour urinary protein quantitation [3]: 15.01 ± 4.4^ΔΔ mg/24 h; 24-hour urinary protein quantitation [4]: 20.02 ± 5.2^Δ mg/24 h; IL-1α [3]: 10.10 ± 4.01 pg/mL; IL-1β [3]: 192.56 ± 64.69^Δ pg/ml; IL-6 [3]: 73.57 ± 25.60^ΔΔ pg/ml; IL-10 [3]: 61.48 ± 24.53 pg/mL; Scr [3]: 45.99 ± 14.4 µmol/L; IL-1α [4]: 12.63 ± 4.56 pg/mL; IL-1β [4]: 277.65 ± 60.39 pg/mL; IL-6 [4]: 90.31 ± 30.41^Δ pg/ml; IL-10 [4]: 74.55 ± 32.12 pg/mL; Scr [4]: 45.66 ± 12.2 µmol/L

Q: Which results are given for `O=C(c1cc(Br)ccc1O)c1cc(O)c(O)cc1Br` [LM49, 2,5′-dibromo-4,5,2′-trihydroxyldiphenylmethanone]?
A: 24-hour urinary protein quantitation [1]: 9.55 ± 2.8^ΔΔ## mg/24 h; 24-hour urinary protein quantitation [2]: 18.11 ± 3.2^Δ mg/24 h; IL-1α [1]: 8.42 ± 2.76^ΔΔ pg/ml; IL-1β [1]: 200.44 ± 59.31^Δ pg/ml; IL-6 [1]: 77.03 ± 36.53^ΔΔ pg/ml; IL-10 [1]: 31.42 ± 10.09 pg/mL; Scr [1]: 46.97 ± 11.6 µmol/L; IL-1α [2]: 11.44 ± 3.95 pg/mL; IL-1β [2]: 227.21 ± 95.41^Δ pg/ml; IL-6 [2]: 91.11 ± 40.63^ΔΔ pg/ml; IL-10 [2]: 55.75 ± 17.61 pg/mL; Scr [2]: 41.42 ± 10.6 µmol/L; 24-hour urinary protein quantitation (low-dose 3 mg/kg, Fourth week): 22.18 ± 6.3 mg/24 h; 24-hour urinary protein quantitation (low-dose 3 mg/kg, Second week): 34.43 ± 6.6 mg/24 h; IL-1α (low-dose 3 mg/kg, Fourth week): 13.98 ± 3.77 pg/mL; IL-1β (low-dose 3 mg/kg, Fourth week): 380.39 ± 80.66^ pg/ml; IL-6 (low-dose 3 mg/kg, Fourth week): 130.12 ± 45.19 pg/mL; IL-10 (low-dose 3 mg/kg, Fourth week): 60.01 ± 26.61 pg/mL; Scr (low-dose 3 mg/kg, Fourth week): 47.78 ± 11.2 µmol/L; IL-1α (low-dose 3 mg/kg, Second week): 14.53 ± 4.76 pg/mL; IL-1β (low-dose 3 mg/kg, Second week): 388.25 ± 72.31 pg/mL; IL-6 (low-dose 3 mg/kg, Second week): 131.23 ± 41.33 pg/mL; IL-10 (low-dose 3 mg/kg, Second week): 80.09 ± 33.11 pg/mL; Scr (low-dose 3 mg/kg, Second week): 49.44 ± 11.1 µmol/L; 24-hour urinary protein quantitation [3]: 17.65 ± 5.7^ΔΔ mg/24 h; 24-hour urinary protein quantitation [4]: 24.99 ± 5.0 mg/24 h; IL-1α [3]: 12.15 ± 4.76 pg/mL; IL-1β [3]: 297.55 ± 94.66^Δ pg/ml; IL-6 [3]: 90.66 ± 40.03^Δ pg/ml; IL-10 [3]: 51.51 ± 18.09 pg/mL; Scr [3]: 46.57 ± 10.9 µmol/L; IL-1α [4]: 13.62 ± 4.87 pg/mL; IL-1β [4]: 351.11 ± 100.32 pg/mL; IL-6 [4]: 100.15 ± 32.51 pg/mL; IL-10 [4]: 61.31 ± 23.89 pg/mL; Scr [4]: 45.88 ± 12.2 µmol/L
